In US20090170762A1, “Treatment of Diabetes Related Obesity” (UUTech Limited, priority 2005, published 2009):
Ends that are not written are not given here.

Molecular target: T1, human GIP-R (Homo sapiens, UniProt P48546)
T1 construct: expressed in transfected cells; host or cells: Chinese Hamster Lung (CHL) fibroblast cells, stably transfected
T1 sequence (P48546 22-466): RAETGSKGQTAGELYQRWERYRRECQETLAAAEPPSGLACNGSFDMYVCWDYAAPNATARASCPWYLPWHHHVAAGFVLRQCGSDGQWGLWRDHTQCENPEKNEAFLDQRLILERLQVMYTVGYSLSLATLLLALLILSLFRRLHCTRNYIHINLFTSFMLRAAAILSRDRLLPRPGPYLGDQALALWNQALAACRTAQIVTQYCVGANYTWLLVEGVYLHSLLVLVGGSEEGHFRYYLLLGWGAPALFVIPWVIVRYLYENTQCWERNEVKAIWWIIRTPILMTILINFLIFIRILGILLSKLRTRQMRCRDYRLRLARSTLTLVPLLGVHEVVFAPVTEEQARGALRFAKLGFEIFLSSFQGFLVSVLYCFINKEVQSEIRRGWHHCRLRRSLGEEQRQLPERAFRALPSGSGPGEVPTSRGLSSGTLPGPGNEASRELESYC
Experiment: Cyclic AMP production in GIP-R transfected CHL cells
Type: cell-based
Procedure, shortened: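 Cells washed in ice-cold HBS buffer (5.6 mm glucose, pH 7.4), then lysed in TCA/SDS solution with unlabelled cAMP and ATP. Tritiated cAMP formation measured by Dowex and alumina ion-exchange column chromatography.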

How did the EC50 turn out when “YAPGTFISDYSIAMDKIHQQDFVNWLLAQKGKKNDWKHNITQ [(Pro^3)GIP]” was run?
Its EC50 is 207 nM.

And the remaining activity at 0.1 µM (CHL, read-out: cAMP response in presence of 10^-7 M GIP (% GIP max))?
The remaining activity at 0.1 µM was 66 ± 7%.

What about the “inhibition of GIP-stimulated cAMP production” value (in presence of GIP (10^-7 m)) of the same sequence?
The value was “significantly inhibited”.
